{"source": "patent US20110077230A1", "about": "“COPPER ORGANOCOMPLEXES, USE THEREOF AS ANTITUMOR MEANS AND FOR PROTECTING HEALTHY TISSUE FROM IONIZING RADIATION” (CHARITE - UNIVERSITATSMEDIZIN BERLIN, priority 2008, published 2011)", "key": {"[1]": {"test_system": "primary lymphoblasts from ALL patients", "assay": "Ex vivo induction of apoptosis in primary lymphoblasts", "type": "cell-based, human", "conditions": "concentration in LC50 range of NALM-6, 60 hours, cells resistant to daunorubicin and doxorubicin", "procedure": "Thereafter, the cells were incubated for 60 hours at 37° C. and 5% CO2, subsequently stained with propidium iodide and quantified using flow cytometry in an FACS."}, "melanoma B 16": {"test_system": "melanoma B 16", "assay": "B 16 melanoma in mice, peroral administration versus intraabdominal injection", "type": "in vivo, mice of the line C 57Bl", "design": "Average weight of tumor: unit not given here", "conditions": "for Average weight of tumor: day 16", "procedure": "The melanoma B 16 was implanted in 23 mice of the line C 57Bl by subcutaneous injection into the right thigh. The animals were divided into five groups of four to five mice each.\nGroup I received complex A at a dosage of 7 mg/kg as a suspension in olive oil which was administered perorally 3, 5, 7 and 9 days after transplantation of the tumor.\nGroup II was treated as group I, but using a dosage of 10 mg/kg administered on the 3rd, 4th, 5th, 6th, 7th, 8th, 9th and 10th day.\nGroup III was treated as group II, but using a dosage of 15 mg/kg.\nGroup IV received complex A 3, 5, 7 and 9 days after transplantation of the tumor at a dosage of 7 mg/kg, dissolved in DMSO, to which end the solution was administered by injection in the form of a 4% suspension in physiological saline.\nGroup V received no treatment.\nOn day 16 of the experiment the animals were sacrificed and examined."}, "thymocytes": {"test_system": "thymocytes", "assay": "Membrane potential of thymocytes (fluorescent dye)", "type": "cell-based, rats of the Wistar line", "procedure": "(§1) The Ehrlich ascites carcinoma (EAC) was obtained from white male mice of the strain MNR1 and the thymocytes from the thymus of rats of the Wistar line. Vitality of the cells was tested by vital staining using trypan blue and experiments and determined to be no less than 95% in all experiments. The NADH state in the EAC cells was assessed with reference to their fluorescence intensity. Measurement of the intracellular calcium concentration was performed according to the standard methodology of fluorescence using chlortetracycline. The membrane potential was measured using the fluorescent dye No. 1104. NADH is a source of electrons in the oxidative phosphorylation process. […] These effects are directed to inhibiting the NAD-dependent dehydrogenase. As a result, the respiratory chain in the tumor cells is inhibited.\nMoreover, the complexes A and C have an influence on the membrane potential of thymocytes."}, "[2]": {"test_system": "human mammary gland tumor cells, T4N2M0 stage", "assay": "In vitro effect on human mammary gland tumor cells, Experiment 2", "type": "cell-based", "procedure": "(§2) Tumor cells were collected from the surgical material of female patients suffering from mammary carcinoma at two different stages. The tumor tissue was added with sterile 0.25% trypsin solution and centrifuged repeatedly in RPMI-1640 nutrient medium for 15 minutes at 1500 revolutions per minute. The amount of resulting cells was counted and the suspension of tumor cells divided into five equal groups. The RPMI-1640 nutrient medium was added with 12% fetal calf serum. The cells were incubated for 48 h at 37° C. in a 5% CO2 stream.\n(§3) The preparations were dissolved in 4% DMSO and physiological saline and acidified with HCl.\n(§4) Two experiments were performed using cancer cells derived from tumors of different stages. To differentiate the various stages of cancer, the TNM classification is used internationally which takes into account the tumor size (T), lymph node affection (N=nodal status) and the extent of metastasis (M).\n(T3: large tumor spreading into the tissue surrounding the breast; N2: metastases up to 9 axillary lymph nodes, M0: no distant metastases). A suspension including 40 million cells was added with 50 μl of each preparation.\n(§5) The 5 groups with cancer cells received the following:\n(§6) After subjecting the preparations to flow incubation for 60 minutes, trypan blue stained cells were produced, and dead cells and apoptosis could be determined; dead cells and apoptotic cells were determined in specific units of time and morphological findings."}, "neutrophils": {"test_system": "neutrophils", "assay": "Antioxidant properties: ROS formation in neutrophils", "type": "cell-based, male mice of the NMRI line", "conditions": "triggered by PMA and fMLF, depending on the dosage", "text": "The complexes A and C show a pronounced effect as antioxidant in an environment having an excess of reactive oxygen species (ROS). Thus, ROS formation in neutrophils obtained from male mice of the NMRI line was triggered by two activators: phorbol 12-myristate 13-acetate (PMA) and N-formyl-methionyl-leucylphenylalanine (fMLF)."}, "[3]": {"test_system": "colon adenocarcinoma tumor (AKATOL)", "assay": "Transplanted colon adenocarcinoma (AKATOL), intraabdominal injection", "type": "in vivo, mice of the BALB line", "design": "Average weight: unit not given here", "conditions": "for Average volume of tumor: day 21", "procedure": "A suspension of tumor cells was injected into the thighs of 15 mice of the BALB line. The animals received the complex A preparation at a dose of 5 mg/kg 4, 6, 8 and 11 days after implantation.\nGroup I received the preparation dissolved in DMSO and dispersed in a 4% suspension in physiological saline.\nGroup II received the preparation in Tween 60.\nGroup III remained untreated.\nOn day 21 of the experiment the animals were sacrificed and examined."}, "[4]": {"test_system": "human mammary gland tumor cells, T2N1M0 stage", "assay": "In vitro effect on human mammary gland tumor cells, Experiment 1", "type": "cell-based", "procedure": "as §2, §3, §4\n(T2: tumor up to 5 cm; N1; metastases in 3 lymph nodes; M0: no distant metastases). A suspension including 40 million cells was added with 50 μl of each preparation.\nas §5, §6"}, "EAC cells": {"test_system": "EAC cells", "assay": "Cytosolic calcium (chlortetracycline fluorescence) in EAC cells", "type": "cell-based, mice", "conditions": "depending on the dose", "procedure": "as §1\nThe concentration of intracellular calcium is a trigger for a number of intracellular processes (FIG. 17c, 17d)."}, "[5]": {"conditions": "Group I: 5 mg/kg in DMSO/physiological saline"}}, "data": [{"substance": "Copper-sarcolysine hydrochloride complex [complex A]", "values": [{"measurement": "induction of apoptosis in lymphoblasts", "setting": "[1]", "result": "about 26%"}, {"measurement": "% inhibition, mass percent", "setting": "melanoma B 16; Group I: peroral 7 mg/kg", "result": 62.0, "unit": "%"}, {"measurement": "% inhibition, volume percent", "setting": "melanoma B 16; Group I: peroral 7 mg/kg", "result": 84.1, "unit": "%"}, {"measurement": "Average volume of tumor", "setting": "melanoma B 16; Group I: peroral 7 mg/kg", "result": 1.39, "unit": "cm^3"}, {"measurement": "Average weight of tumor", "setting": "melanoma B 16; Group I: peroral 7 mg/kg in olive oil, days 3, 5, 7, 9", "result": "0.96 ± 0.14"}, {"measurement": "% inhibition, mass percent", "setting": "melanoma B 16; Group II: peroral 10 mg/kg", "result": 73.10, "unit": "%"}, {"measurement": "% inhibition, volume percent", "setting": "melanoma B 16; Group II: peroral 10 mg/kg", "result": 76.0, "unit": "%"}, {"measurement": "Average volume of tumor", "setting": "melanoma B 16; Group II: peroral 10 mg/kg", "result": 1.55, "unit": "cm^3"}, {"measurement": "Average weight of tumor", "setting": "melanoma B 16; Group II: peroral 10 mg/kg, days 3 to 10", "result": "0.68 ± 0.34"}, {"measurement": "% inhibition, mass percent", "setting": "melanoma B 16; Group III: peroral 15 mg/kg", "result": 100, "unit": "%"}, {"measurement": "% inhibition, volume percent", "setting": "melanoma B 16; Group III: peroral 15 mg/kg", "result": 100, "unit": "%"}, {"measurement": "Average volume of tumor", "setting": "melanoma B 16; Group III: peroral 15 mg/kg", "result": 0, "unit": "cm^3"}, {"measurement": "Average weight of tumor", "setting": "melanoma B 16; Group III: peroral 15 mg/kg, days 3 to 10", "result": 0}, {"measurement": "% inhibition, mass percent", "setting": "melanoma B 16; Group IV: injection 7 mg/kg", "result": 68.0, "unit": "%"}, {"measurement": "% inhibition, volume percent", "setting": "melanoma B 16; Group IV: injection 7 mg/kg", "result": 76.7, "unit": "%"}, {"measurement": "Average volume of tumor", "setting": "melanoma B 16; Group IV: injection 7 mg/kg", "result": 1.5, "unit": "cm^3"}, {"measurement": "Average weight of tumor", "setting": "melanoma B 16; Group IV: injection 7 mg/kg in DMSO/physiological saline, days 3, 5, 7, 9", "result": "1.025 ± 0.39"}, {"measurement": "fate of the tumor", "setting": "melanoma B 16; group 3: peroral 15 mg/kg", "result": "disappeared completely"}, {"measurement": "influence on the membrane potential of thymocytes", "setting": "thymocytes", "result": "hyperpolarization of the cell membranes"}, {"measurement": "Living cells, %", "setting": "[2]; Experiment 2, T4N2M0", "result": "18.0 ± 1.71", "unit": "%"}, {"measurement": "Dead cells, %", "setting": "[2]; Experiment 2, T4N2M0, 40 million cells, 50 μl of preparation", "result": "82.0 ± 1.78", "unit": "%"}, {"measurement": "formation of ROS in neutrophils", "setting": "neutrophils", "result": "reduce or completely suppress"}, {"measurement": "Average volume of tumor", "setting": "[3]; Group I: 5 mg/kg in DMSO, 4% suspension in physiological saline", "result": 1.315, "unit": "cm^3"}, {"measurement": "% inhibition, mass percent", "setting": "[3]; [5]", "result": 60.4, "unit": "%"}, {"measurement": "% inhibition, volume percent", "setting": "[3]; [5]", "result": 87.1, "unit": "%"}, {"measurement": "Average weight", "setting": "[3]; [5]", "result": 1.25}, {"measurement": "% inhibition, mass percent", "setting": "[3]; Group II: 5 mg/kg in Tween 60", "result": 95.85, "unit": "%"}, {"measurement": "% inhibition, volume percent", "setting": "[3]; Group II: 5 mg/kg in Tween 60", "result": 97.8, "unit": "%"}, {"measurement": "Average weight", "setting": "[3]; Group II: 5 mg/kg in Tween 60", "result": 0.25}, {"measurement": "Average volume of tumor", "setting": "[3]; Group II: 5 mg/kg in Tween 60", "result": 0.217, "unit": "cm^3"}, {"measurement": "Living cells, %", "setting": "[4]; Experiment 1, T2N1M0", "result": "24.0 ± 1.90", "unit": "%"}, {"measurement": "Dead cells, %", "setting": "[4]; Experiment 1, T2N1M0, 40 million cells, 50 μl of preparation", "result": "76.0 ± 2.06", "unit": "%"}, {"measurement": "concentration of cytosolic calcium", "setting": "EAC cells", "result": "increase"}]}]}
